Assay results: patent US12091426B2, “Bifunctional degraders of hematopoietic progenitor kinase and therapeutic uses thereof” (Nurix Therapeutics, Inc., priority 2021, dated 2024)

Biological target: T1, HPK1 (Homo sapiens, UniProt Q92918)
T1 construct: A HiBiT tag was introduced by CRISPR on the N terminus of HPK1 in Jurkat cells; host or cells: Jurkat cells (ATCC TIB-152), monoclonal line with CRISPR knock-in of HiBiT at the endogenous HPK1 locus
Assay: HPK1 Cellular HiBit Degradation Assay
Format: cell-based
Conditions: HiBiT HPK1 Jurkat cells, 24 hrs; for DC50: concentration at which 50% of HPK1 was remaining, read-out: DC50 Category; for Dmax: Jurkat, maximum degradation vs DMSO vehicle control, read-out: Dmax Category
Procedure, shortened: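 Degraders are dosed in an 11-point series (10 uM to 0.1 nM final) onto Jurkat cells carrying an N-terminal HiBiT tag on endogenous HPK1. After 24 hrs at 37° C, lysis-based HiBiT luminescence quantifies remaining HPK1 relative to vehicle, and curve fitting gives DC50 and Dmax.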

T1 sequence (Q92918 whole entry): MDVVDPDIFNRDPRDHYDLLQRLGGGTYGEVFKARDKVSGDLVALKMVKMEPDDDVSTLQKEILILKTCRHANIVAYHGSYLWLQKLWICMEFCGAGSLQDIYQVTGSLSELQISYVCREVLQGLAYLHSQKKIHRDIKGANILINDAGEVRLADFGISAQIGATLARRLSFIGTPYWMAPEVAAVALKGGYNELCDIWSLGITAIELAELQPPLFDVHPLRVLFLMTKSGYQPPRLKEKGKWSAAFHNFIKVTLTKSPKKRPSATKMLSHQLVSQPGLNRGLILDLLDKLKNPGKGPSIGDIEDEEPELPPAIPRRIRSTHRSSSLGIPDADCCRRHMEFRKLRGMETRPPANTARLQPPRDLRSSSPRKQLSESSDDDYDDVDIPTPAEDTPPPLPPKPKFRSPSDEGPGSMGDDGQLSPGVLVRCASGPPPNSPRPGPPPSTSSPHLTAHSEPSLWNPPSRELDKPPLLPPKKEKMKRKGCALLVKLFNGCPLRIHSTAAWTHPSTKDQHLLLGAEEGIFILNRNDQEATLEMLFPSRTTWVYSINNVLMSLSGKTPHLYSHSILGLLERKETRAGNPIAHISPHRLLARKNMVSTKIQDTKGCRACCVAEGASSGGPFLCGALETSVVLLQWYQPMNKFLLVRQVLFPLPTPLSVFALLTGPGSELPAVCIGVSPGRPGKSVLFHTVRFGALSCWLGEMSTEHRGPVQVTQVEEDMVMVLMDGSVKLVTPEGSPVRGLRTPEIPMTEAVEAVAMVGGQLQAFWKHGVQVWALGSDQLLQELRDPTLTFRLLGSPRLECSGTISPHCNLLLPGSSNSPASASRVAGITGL

DC50 [µM]	Dmax [%]	Structure (SMILES)
< 0.1	70 to 85	CC(C)n1cnc2cc(-c3ccc4c(c3)N([C@H]3C[C@@H](N5CCCCC5)C3)C(=O)C43CCN(C(=O)C4(C)CCN(C(=O)C5CCN(c6ccc(C7CCC(=O)NC7=O)cn6)CC5)CC4)CC3)nc(Nc3ccccc3F)c21 (mixture of isomers) [Example 114, (3RS)-3-[6-(4-{4-[(6-{4-[(2-fluorophenyl)amino]-3-(propan-2-yl)-3H-imidazo[4,5-c]pyridin-6-yl}-2-oxo-1-[(1S,3S)-3-(piperidin-1-yl)cyclobutyl]-1,2-dihydrospiro[indole-3,4′-piperidin]-1′-yl)carbonyl]-4-methylpiperidine-1-carbonyl}piperidin-1-yl)pyridin-3-yl]piperidine-2,6-dione]
< 0.1	70 to 85	CC(C)n1cnc2cc(-c3ccc4c(c3)N([C@H]3C[C@@H](N5CCCCC5)C3)C(=O)C43CCN(C(=O)C4(C)CCN(C(=O)C5CCN(c6ccc(C7CCC(=O)NC7=O)nc6)CC5)CC4)CC3)nc(Nc3ccccc3F)c21 (mixture of isomers) [Example 119, (3RS)-3-[5-(4-{4-[(6-{4-[(2-fluorophenyl)amino]-3-(propan-2-yl)-3H-imidazo[4,5-c]pyridin-6-yl}-2-oxo-1-[(1S,3S)-3-(piperidin-1-yl)cyclobutyl]-1,2-dihydrospiro[indole-3,4′-piperidin]-1′-yl)carbonyl]-4-methylpiperidine-1-carbonyl}piperidin-1-yl)pyridin-2-yl]piperidine-2,6-dione]
0.1 to 0.5	70 to 85	Cc1cc(C(=O)N2CCN(c3ccc4c(c3)C(=O)N(C3CCC(=O)NC3=O)C4=O)CC2)ccc1C(=O)N1CCC2(CC1)C(=O)N([C@H]1C[C@@H](N3CCCCC3)C1)c1cc(-c3cc4ncn(C(C)C)c4c(Nc4ccccc4F)n3)ccc12 (mixture of isomers) [Example 124, 2-[(3RS)-2,6-dioxopiperidin-3-yl]-5-(4-{4-[(6-{4-[(2-fluorophenyl)amino]-3-(propan-2-yl)-3H-imidazo[4,5-c]pyridin-6-yl}-2-oxo-1-[(1S,3S)-3-(piperidin-1-yl)cyclobutyl]-1,2-dihydrospiro[indole-3,4′-piperidin]-1′-yl)carbonyl]-3-methylbenzoyl}piperazin-1-yl)-2,3-dihydro-1H-isoindole-1,3-dione]
0.5 to 1	50 to 70	Cc1cc(C(=O)N2CCC3(CC2)C(=O)N([C@H]2C[C@@H](N4CCCCC4)C2)c2cc(-c4cc5ncn(C(C)C)c5c(Nc5ccccc5F)n4)ccc23)ccc1C(=O)N1CCN(c2ccc3c(c2)C(=O)N(C2CCC(=O)NC2=O)C3=O)CC1 (mixture of isomers) [Example 125, 2-[(3RS)-2,6-dioxopiperidin-3-yl]-5-(4-{4-[(6-{4-[(2-fluorophenyl)amino]-3-(propan-2-yl)-3H-imidazo[4,5-c]pyridin-6-yl}-2-oxo-1-[(1S,3S)-3-(piperidin-1-yl)cyclobutyl]-1,2-dihydrospiro[indole-3,4′-piperidin]-1′-yl)carbonyl]-2-methylbenzoyl}piperazin-1-yl)-2,3-dihydro-1H-isoindole-1,3-dione]
< 0.1	> 85	CC(C)n1cnc2cc(-c3ccc4c(c3)N([C@H]3C[C@@H](N5CCCCC5)C3)C(=O)C43CCN(C(=O)[C@@H]4CCN(C(=O)[C@H]5CC[C@H](N(C)c6ccc(C7CCC(=O)NC7=O)cn6)CC5)C4)CC3)nc(Nc3ccccc3F)c21 (mixture of isomers) [Example 127, (3RS)-3-(6-{METHYL [(1R,4R)-4-[(3R)-3-[(6-{4-[(2-fluorophenyl)amino]-3-(propan-2-yl)-3H-imidazo[4,5-c]pyridin-6-yl}-2-oxo-1-[(1S,3S)-3-(piperidin-1-yl)cyclobutyl]-1,2-dihydrospiro[indole-3,4′-piperidin]-1′-yl)carbonyl]pyrrolidine-1-carbonyl]cyclohexyl]amino}pyridin-3-yl)piperidine-2,6-dione]
0.1 to 0.5	70 to 85	CC(C)n1cnc2cc(-c3ccc4c(c3)N([C@H]3C[C@@H](N5CCCCC5)C3)C(=O)C43CCN(C(=O)[C@@H]4CCN(C(=O)[C@H]5CC[C@H](N(C)c6cccc7c6C(=O)N(C6CCC(=O)NC6=O)C7=O)CC5)C4)CC3)nc(NC3CC3)c21 (mixture of isomers) [Example 129, 2-[(3RS)-2,6-dioxopiperidin-3-yl]-4-{methyl[(1R,4R)-4-[(3R)-3-({6-[4-(cyclopropylamino)-3-(propan-2-yl)-3H-imidazo[4,5-c]pyridin-6-yl]-2-oxo-1-[(1S,3S)-3-(piperidin-1-yl)cyclobutyl]-1,2-dihydrospiro[indole-3,4′-piperidin]-1′-yl}carbonyl)pyrrolidine-1-carbonyl]cyclohexyl]amino}-2,3-dihydro-1H-isoindole-1,3-dione]

The next lines start with the compound.

Structure (SMILES)	DC50 [µM]	Dmax [%]
CC(C)n1cnc2cc(-c3ccc4c(c3)N([C@H]3C[C@@H](N5CCCCC5)C3)C(=O)C43CCN(C(=O)C4(C)CCN(C(=O)C5CCN(c6ccc(C7CCC(=O)NC7=O)cn6)CC5)CC4)CC3)nc(NC3CC3)c21 (mixture of isomers) [Example 113, (3RS)-3-(6-{4-[4-({6-[4-(cyclopropylamino)-3-(propan-2-yl)-3H-imidazo[4,5-c]pyridin-6-yl]-2-oxo-1-[(1S,3S)-3-(piperidin-1-yl)cyclobutyl]-1,2-dihydrospiro[indole-3,4′-piperidin]-1′-yl}carbonyl)-4-methylpiperidine-1-carbonyl]piperidin-1-yl}pyridin-3-yl)piperidine-2,6-dione]	< 0.1	70 to 85
CC(C)n1cnc2cc(-c3ccc4c(c3)N([C@H]3C[C@@H](N5CCCCC5)C3)C(=O)C43CCN(C(=O)C4(C)CCN(C(=O)C5CCN(c6ccc(C7CCC(=O)NC7=O)nc6)CC5)CC4)CC3)nc(NC3CC3)c21 (mixture of isomers) [Example 118, (3RS)-3-(5-{4-[4-({6-[4-(cyclopropylamino)-3-(propan-2-yl)-3H-imidazo[4,5-c]pyridin-6-yl]-2-oxo-1-[(1S,3S)-3-(piperidin-1-yl)cyclobutyl]-1,2-dihydrospiro[indole-3,4′-piperidin]-1′-yl}carbonyl)-4-methylpiperidine-1-carbonyl]piperidin-1-yl}pyridin-2-yl)piperidine-2,6-dione]	< 0.1	50 to 70
CC(C)n1cnc2cc(-c3ccc4c(c3)N([C@H]3C[C@@H](N5CCCCC5)C3)C(=O)C43CCN(C(=O)C4(C)CCN(C(=O)C5CCN(c6ccc(C7CCC(=O)NC7=O)nc6)CC5)CC4)CC3)nc(Nc3ccncc3F)c21 (mixture of isomers) [Example 120, (3RS)-3-[5-(4-{4-[(6-{4-[(3-fluoropyridin-4-yl)amino]-3-(propan-2-yl)-3H-imidazo[4,5-c]pyridin-6-yl}-2-oxo-1-[(1S,3S)-3-(piperidin-1-yl)cyclobutyl]-1,2-dihydrospiro[indole-3,4′-piperidin]-1′-yl)carbonyl]-4-methylpiperidine-1-carbonyl}piperidin-1-yl)pyridin-2-yl]piperidine-2,6-dione]	< 0.1	70 to 85
CC(C)n1cnc2cc(-c3ccc4c(c3)N([C@H]3C[C@@H](N5CCCCC5)C3)C(=O)C43CCN(C(=O)C4(C)CCN(C(=O)CN5CCN(c6ccc(C7CCC(=O)NC7=O)cn6)CC5)CC4)CC3)nc(NC3CC3)c21 (mixture of isomers) [Example 123, (3RS)-3-[6-(4-{2-[4-({6-[4-(cyclopropylamino)-3-(propan-2-yl)-3H-imidazo[4,5-c]pyridin-6-yl]-2-oxo-1-[(1S,3S)-3-(piperidin-1-yl)cyclobutyl]-1,2-dihydrospiro[indole-3,4′-piperidin]-1′-yl}carbonyl)-4-methylpiperidin-1-yl]-2-oxoethyl}piperazin-1-yl)pyridin-3-yl]piperidine-2,6-dione]	< 0.1	50 to 70
CC(C)n1cnc2cc(-c3ccc4c(c3)N([C@H]3C[C@@H](N5CCCCC5)C3)C(=O)C43CCN(C(=O)[C@@H]4CCN(C(=O)[C@H]5CC[C@H](N(C)c6ccc(C7CCC(=O)NC7=O)cn6)CC5)C4)CC3)nc(NC3CC3)c21 (mixture of isomers) [Example 126, (3RS)-3-(6-{methyl[(1R,4R)-4-[(3R)-3-({6-[4-(cyclopropylamino)-3-(propan-2-yl)-3H-imidazo[4,5-c]pyridin-6-yl]-2-oxo-1-[(1S,3S)-3-(piperidin-1-yl)cyclobutyl]-1,2-dihydrospiro[indole-3,4′-piperidin]-1′-yl}carbonyl)pyrrolidine-1-carbonyl]cyclohexyl]amino}pyridin-3-yl)piperidine-2,6-dione]	< 0.1	> 85
CC(C)n1cnc2cc(-c3ccc4c(c3)N([C@H]3C[C@@H](N5CCCCC5)C3)C(=O)C43CCN(C(=O)[C@@H]4CCN(C(=O)[C@H]5CC[C@H](N(C)c6ccc(C7CCC(=O)NC7=O)cn6)CC5)C4)CC3)nc(Nc3ccncc3F)c21 (mixture of isomers) [Example 128, (3RS)-3-(6-{methyl[(1R,4R)-4-[(3R)-3-[(6-{4-[(3-Fluoropyridin-4-yl)amino]-3-(propan-2-yl)-3H-imidazo[4,5-c]pyridin-6-yl}-2-oxo-1-[(1S,3S)-3-(piperidin-1-yl)cyclobutyl]-1,2-dihydrospiro[indole-3,4′-piperidin]-1′-yl)carbonyl]pyrrolidine-1-carbonyl]cyclohexyl]amino}pyridin-3-yl)piperidine-2,6-dione]	< 0.1	> 85
CC(C)n1cnc2cc(-c3ccc4c(c3)N([C@H]3C[C@@H](N5CCCCC5)C3)C(=O)C43CCN(C(=O)C4CCN(C(=O)[C@H]5CC[C@H](N(C)c6ccc(C7CCC(=O)NC7=O)cn6)CC5)CC4)CC3)nc(NC3CC3)c21 (mixture of isomers) [Example 130, (3RS)-3-(6-{methyl[(1R,4R)-4-[4-({6-[4-(cyclopropylamino)-3-(propan-2-yl)-3H-imidazo[4,5-c]pyridin-6-yl]-2-oxo-1-[(1S,3S)-3-(piperidin-1-yl)cyclobutyl]-1,2-dihydrospiro[indole-3,4′-piperidin]-1′-yl}carbonyl)piperidine-1-carbonyl]cyclohexyl]amino}pyridin-3-yl)piperidine-2,6-dione]	< 0.1	50 to 70
